± gives the expanded uncertainty stated by the source.
Conditions: Liquid; for vapor or sublimation pressure: Closed cell (Static) method; for mass density: 101.33 kPa, Vibrating tube method

OCC(F)(F)C(F)(F)C(F)(F)C(F)(F)F [2,2,3,3,4,4,5,5,5-nonafluoropentan-1-ol]
vapor or sublimation pressure (278.14 K): 0.2236 ± 0.011 kPa
mass density (278.15 K): 1689.58 ± 5.6 kg/m3
mass density (279.15 K): 1687.71 ± 5.6 kg/m3
mass density (280.15 K): 1685.83 ± 5.6 kg/m3
mass density (281.15 K): 1683.95 ± 5.6 kg/m3
mass density (282.15 K): 1682.07 ± 5.5 kg/m3
vapor or sublimation pressure (283.1 K): 0.3363 ± 0.011 kPa
mass density (283.15 K): 1680.18 ± 5.5 kg/m3
mass density (284.15 K): 1678.29 ± 5.5 kg/m3
mass density (285.15 K): 1676.39 ± 5.5 kg/m3
mass density (286.15 K): 1674.48 ± 5.5 kg/m3
mass density (287.15 K): 1672.58 ± 5.5 kg/m3
vapor or sublimation pressure (288.07 K): 0.502 ± 0.012 kPa
mass density (288.15 K): 1670.67 ± 5.5 kg/m3
mass density (289.15 K): 1668.76 ± 5.5 kg/m3
mass density (290.15 K): 1666.84 ± 5.4 kg/m3
mass density (291.15 K): 1664.91 ± 5.4 kg/m3
mass density (292.15 K): 1662.98 ± 5.4 kg/m3
vapor or sublimation pressure (293.06 K): 0.7329 ± 0.013 kPa
mass density (293.15 K): 1661.05 ± 5.4 kg/m3
mass density (294.15 K): 1659.11 ± 5.4 kg/m3
mass density (295.15 K): 1657.16 ± 5.4 kg/m3
mass density (296.15 K): 1655.22 ± 5.4 kg/m3
mass density (297.15 K): 1653.26 ± 5.4 kg/m3
vapor or sublimation pressure (298.09 K): 1.07 ± 0.016 kPa
mass density (298.15 K): 1651.3 ± 5.3 kg/m3
mass density (299.15 K): 1649.34 ± 5.3 kg/m3
mass density (300.15 K): 1647.37 ± 5.3 kg/m3
mass density (301.15 K): 1645.39 ± 5.3 kg/m3
mass density (302.15 K): 1643.41 ± 5.3 kg/m3
vapor or sublimation pressure (303.1 K): 1.531 ± 0.018 kPa
mass density (303.15 K): 1641.42 ± 5.3 kg/m3
mass density (304.15 K): 1639.43 ± 5.3 kg/m3
mass density (305.15 K): 1637.43 ± 5.3 kg/m3
mass density (306.15 K): 1635.43 ± 5.2 kg/m3
mass density (307.15 K): 1633.42 ± 5.2 kg/m3
vapor or sublimation pressure (308.06 K): 2.152 ± 0.021 kPa
mass density (308.15 K): 1631.4 ± 5.2 kg/m3
mass density (309.15 K): 1629.38 ± 5.2 kg/m3
mass density (310.15 K): 1627.35 ± 5.2 kg/m3
mass density (311.15 K): 1625.32 ± 5.2 kg/m3
mass density (312.15 K): 1623.28 ± 5.2 kg/m3
vapor or sublimation pressure (313.02 K): 2.979 ± 0.026 kPa
mass density (313.15 K): 1621.23 ± 5.1 kg/m3
mass density (314.15 K): 1619.17 ± 5.1 kg/m3
mass density (315.15 K): 1617.12 ± 5.1 kg/m3
mass density (316.15 K): 1615.05 ± 5.1 kg/m3
mass density (317.15 K): 1612.98 ± 5.1 kg/m3
vapor or sublimation pressure (317.98 K): 4.071 ± 0.032 kPa
mass density (318.15 K): 1610.9 ± 5.1 kg/m3
mass density (319.15 K): 1608.81 ± 5.1 kg/m3
mass density (320.15 K): 1606.72 ± 5.1 kg/m3
mass density (321.15 K): 1604.62 ± 5 kg/m3
mass density (322.15 K): 1602.52 ± 5 kg/m3
vapor or sublimation pressure (322.99 K): 5.496 ± 0.041 kPa
mass density (323.15 K): 1600.4 ± 5 kg/m3
mass density (324.15 K): 1598.29 ± 5 kg/m3
mass density (325.15 K): 1596.16 ± 5 kg/m3
mass density (326.15 K): 1594.03 ± 5 kg/m3
mass density (327.15 K): 1591.88 ± 5 kg/m3
vapor or sublimation pressure (327.95 K): 7.315 ± 0.047 kPa
mass density (328.15 K): 1589.74 ± 4.9 kg/m3
mass density (329.15 K): 1587.59 ± 4.9 kg/m3
mass density (330.15 K): 1585.42 ± 4.9 kg/m3
mass density (331.15 K): 1583.26 ± 4.9 kg/m3
mass density (332.15 K): 1581.08 ± 4.9 kg/m3
mass density (333.15 K): 1578.9 ± 4.9 kg/m3
mass density (334.15 K): 1576.7 ± 4.9 kg/m3
mass density (335.15 K): 1574.51 ± 4.9 kg/m3
mass density (336.15 K): 1572.3 ± 4.8 kg/m3
mass density (337.15 K): 1570.09 ± 4.8 kg/m3
mass density (338.15 K): 1567.87 ± 4.8 kg/m3
mass density (339.15 K): 1565.64 ± 4.8 kg/m3
mass density (340.15 K): 1563.41 ± 4.8 kg/m3
mass density (341.15 K): 1561.17 ± 4.8 kg/m3
mass density (342.15 K): 1558.91 ± 4.8 kg/m3
mass density (343.15 K): 1556.65 ± 4.7 kg/m3
mass density (344.15 K): 1554.39 ± 4.7 kg/m3
mass density (345.15 K): 1552.11 ± 4.7 kg/m3
mass density (346.14 K): 1549.83 ± 4.7 kg/m3
mass density (347.15 K): 1547.45 ± 4.7 kg/m3
mass density (348.15 K): 1545.15 ± 4.7 kg/m3
mass density (349.15 K): 1542.85 ± 4.7 kg/m3
mass density (350.15 K): 1540.53 ± 4.6 kg/m3
mass density (351.15 K): 1538.2 ± 4.6 kg/m3
mass density (352.15 K): 1535.87 ± 4.6 kg/m3
mass density (353.15 K): 1533.52 ± 4.6 kg/m3

OCC(F)(F)C(F)(F)C(F)(F)C(F)(F)C(F)(F)F [2,2,3,3,4,4,5,5,6,6,6-undecafluorohexan-1-ol]
vapor or sublimation pressure (278.14 K): 0.0688 ± 0.01 kPa
mass density (278.15 K): 1746.4 ± 2.8 kg/m3
mass density (279.15 K): 1744.56 ± 2.8 kg/m3
mass density (280.15 K): 1742.69 ± 2.8 kg/m3
mass density (281.15 K): 1740.82 ± 2.8 kg/m3
mass density (282.15 K): 1738.95 ± 2.8 kg/m3
vapor or sublimation pressure (283.1 K): 0.1098 ± 0.01 kPa
mass density (283.15 K): 1737.07 ± 2.8 kg/m3
mass density (284.15 K): 1735.19 ± 2.8 kg/m3
mass density (285.15 K): 1733.3 ± 2.7 kg/m3
mass density (286.15 K): 1731.41 ± 2.7 kg/m3
mass density (287.15 K): 1729.52 ± 2.7 kg/m3
vapor or sublimation pressure (288.08 K): 0.1712 ± 0.01 kPa
mass density (288.15 K): 1727.62 ± 2.7 kg/m3
mass density (289.15 K): 1725.71 ± 2.7 kg/m3
mass density (290.15 K): 1723.81 ± 2.7 kg/m3
mass density (291.15 K): 1721.89 ± 2.7 kg/m3
mass density (292.15 K): 1719.98 ± 2.7 kg/m3
vapor or sublimation pressure (293.08 K): 0.2615 ± 0.011 kPa
mass density (293.15 K): 1718.06 ± 2.7 kg/m3
mass density (294.15 K): 1716.13 ± 2.7 kg/m3
mass density (295.15 K): 1714.2 ± 2.7 kg/m3
mass density (296.15 K): 1712.27 ± 2.7 kg/m3
mass density (297.15 K): 1710.32 ± 2.7 kg/m3
vapor or sublimation pressure (298.13 K): 0.3944 ± 0.011 kPa
mass density (298.15 K): 1708.38 ± 2.7 kg/m3
mass density (299.15 K): 1706.43 ± 2.7 kg/m3
mass density (300.15 K): 1704.47 ± 2.7 kg/m3
mass density (301.15 K): 1702.5 ± 2.6 kg/m3
mass density (302.15 K): 1700.54 ± 2.6 kg/m3
vapor or sublimation pressure (303.1 K): 0.5819 ± 0.012 kPa
mass density (303.15 K): 1698.57 ± 2.6 kg/m3
mass density (304.15 K): 1696.59 ± 2.6 kg/m3
mass density (305.15 K): 1694.61 ± 2.6 kg/m3
mass density (306.15 K): 1692.62 ± 2.6 kg/m3
mass density (307.15 K): 1690.62 ± 2.6 kg/m3
vapor or sublimation pressure (308.06 K): 0.8405 ± 0.014 kPa
mass density (308.15 K): 1688.62 ± 2.6 kg/m3
mass density (309.15 K): 1686.62 ± 2.6 kg/m3
mass density (310.15 K): 1684.61 ± 2.6 kg/m3
mass density (311.15 K): 1682.59 ± 2.6 kg/m3
mass density (312.15 K): 1680.57 ± 2.6 kg/m3
vapor or sublimation pressure (313.01 K): 1.205 ± 0.017 kPa
mass density (313.15 K): 1678.54 ± 2.6 kg/m3
mass density (314.15 K): 1676.51 ± 2.6 kg/m3
mass density (315.15 K): 1674.47 ± 2.6 kg/m3
mass density (316.15 K): 1672.43 ± 2.6 kg/m3
mass density (317.15 K): 1670.38 ± 2.5 kg/m3
vapor or sublimation pressure (317.98 K): 1.708 ± 0.018 kPa
mass density (318.15 K): 1668.32 ± 2.5 kg/m3
mass density (319.15 K): 1666.26 ± 2.5 kg/m3
mass density (320.15 K): 1664.19 ± 2.5 kg/m3
mass density (321.15 K): 1662.11 ± 2.5 kg/m3
mass density (322.15 K): 1660.03 ± 2.5 kg/m3
vapor or sublimation pressure (322.93 K): 2.349 ± 0.022 kPa
mass density (323.15 K): 1657.95 ± 2.5 kg/m3
mass density (324.15 K): 1655.85 ± 2.5 kg/m3
mass density (325.15 K): 1653.75 ± 2.5 kg/m3
mass density (326.15 K): 1651.65 ± 2.5 kg/m3
mass density (327.15 K): 1649.54 ± 2.5 kg/m3
vapor or sublimation pressure (327.93 K): 3.25 ± 0.025 kPa
mass density (328.15 K): 1647.42 ± 2.5 kg/m3
mass density (329.15 K): 1645.29 ± 2.5 kg/m3
mass density (330.15 K): 1643.16 ± 2.5 kg/m3
mass density (331.15 K): 1641.02 ± 2.5 kg/m3
mass density (332.15 K): 1638.87 ± 2.5 kg/m3
mass density (333.15 K): 1636.72 ± 2.4 kg/m3
mass density (334.15 K): 1634.57 ± 2.4 kg/m3
mass density (335.15 K): 1632.41 ± 2.4 kg/m3
mass density (336.15 K): 1630.23 ± 2.4 kg/m3
mass density (337.15 K): 1628.06 ± 2.4 kg/m3
mass density (338.15 K): 1625.88 ± 2.4 kg/m3
mass density (339.15 K): 1623.69 ± 2.4 kg/m3
mass density (340.15 K): 1621.49 ± 2.4 kg/m3
mass density (341.15 K): 1619.29 ± 2.4 kg/m3
mass density (342.15 K): 1617.08 ± 2.4 kg/m3
mass density (343.15 K): 1614.86 ± 2.4 kg/m3
mass density (344.15 K): 1612.64 ± 2.4 kg/m3
mass density (345.15 K): 1610.41 ± 2.4 kg/m3
mass density (346.15 K): 1608.17 ± 2.4 kg/m3
mass density (347.15 K): 1605.92 ± 2.4 kg/m3
mass density (348.15 K): 1603.67 ± 2.3 kg/m3
